Experimental data: patent publication US10245264B2, “Substituted imidazo[1,2-a]pyrazines as soluble guanylate cyclase activators” (Merck Sharp & Dohme Corp., priority 2015, dated 2019)

Biological target: T1, sGC α1/β1 heterodimer stably expressed in CHO-K1 cells (CHO-K1/sGC) (Homo sapiens, UniProt Q02108+Q02153)
T1 construct: expressed in transfected cells
T1 sequence (Q02108 1-690): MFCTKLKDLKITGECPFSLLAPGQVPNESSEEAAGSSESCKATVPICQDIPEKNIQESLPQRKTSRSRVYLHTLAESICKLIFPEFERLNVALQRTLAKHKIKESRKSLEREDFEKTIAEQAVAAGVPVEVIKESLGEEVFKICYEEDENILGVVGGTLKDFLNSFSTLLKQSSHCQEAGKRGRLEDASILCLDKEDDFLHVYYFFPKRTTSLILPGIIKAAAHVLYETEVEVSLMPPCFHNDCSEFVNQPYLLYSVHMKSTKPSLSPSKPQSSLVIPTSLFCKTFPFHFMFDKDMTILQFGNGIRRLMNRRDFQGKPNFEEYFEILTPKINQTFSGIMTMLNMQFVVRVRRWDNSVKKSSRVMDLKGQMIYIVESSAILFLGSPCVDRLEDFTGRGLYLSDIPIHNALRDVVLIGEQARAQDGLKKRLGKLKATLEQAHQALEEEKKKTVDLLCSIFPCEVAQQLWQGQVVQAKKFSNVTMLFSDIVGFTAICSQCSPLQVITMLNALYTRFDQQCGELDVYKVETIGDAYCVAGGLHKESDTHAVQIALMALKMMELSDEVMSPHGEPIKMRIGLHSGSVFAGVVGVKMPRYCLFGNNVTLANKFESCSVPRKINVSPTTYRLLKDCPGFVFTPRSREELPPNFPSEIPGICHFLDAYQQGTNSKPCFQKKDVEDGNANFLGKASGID
T1 sequence (Q02153 1-619): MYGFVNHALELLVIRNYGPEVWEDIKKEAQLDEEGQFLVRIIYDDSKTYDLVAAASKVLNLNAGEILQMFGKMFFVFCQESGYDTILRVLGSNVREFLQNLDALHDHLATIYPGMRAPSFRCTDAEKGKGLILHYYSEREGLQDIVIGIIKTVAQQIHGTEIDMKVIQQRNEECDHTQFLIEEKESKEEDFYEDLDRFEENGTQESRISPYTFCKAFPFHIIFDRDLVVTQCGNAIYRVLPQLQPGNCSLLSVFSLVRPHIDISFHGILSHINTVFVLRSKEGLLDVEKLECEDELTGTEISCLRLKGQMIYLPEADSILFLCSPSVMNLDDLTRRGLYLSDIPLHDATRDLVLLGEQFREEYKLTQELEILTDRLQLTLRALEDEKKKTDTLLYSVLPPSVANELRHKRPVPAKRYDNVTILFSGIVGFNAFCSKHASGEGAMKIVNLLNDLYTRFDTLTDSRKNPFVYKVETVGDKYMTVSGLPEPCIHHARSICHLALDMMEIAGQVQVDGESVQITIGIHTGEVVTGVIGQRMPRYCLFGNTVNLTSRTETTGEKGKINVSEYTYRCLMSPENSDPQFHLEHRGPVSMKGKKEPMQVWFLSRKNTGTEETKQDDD
Test: Cell-based sGC functional assay (CASA assay), cGMP generation by HTRF
Conditions: for Emax: CHO-K1, maximum cGMP production of Compound A set to 100% activation, read-out: % Act. (percent activation relative to Compound A); for EC50: CHO-K1/sGC cells, 1 hr at 37° C., 4P fit, presence or absence of DETA-NO not given, read-out: IP (nM) (inflection point)
Text: Biological Assay 1: Cell-Based sGC Functional Assay (CASA Assay) Rationale
sGC is a heme-containing enzyme that converts GTP to secondary messenger cGMP. Increases in cGMP levels affect several physiological processes including vasorelaxation through multiple downstream pathways. […] Heme-dependent activators (HDAs) preferentially activate sGC containing a ferrous heme group. To determine the effect of sGC activators on enzyme activity, the CASA assay was developed to monitor the generation of cGMP in a cell line that stably expresses the heterodimeric sGC protein.
A CHO-K1 cell line stably expressing the sGC α1/β1 heterodimer was generated using a standard transfection protocol. CHO-K1 cells were transfected with plasmids pIREShyghsGCα1 and pIRESneo-hsGCβ1 simultaneously using FUGENE reagent. Clones that stably express both subunits were selected with hygromycin and neomycin for ˜2 weeks. Clone #7 was chosen for the assay and was designated CHO-K1/sGC. CHO-K1/sGC cells were maintained in F-K12 medium containing 10% heat-inactivated Fetal Bovine Serum (FBS), 100 μg/mL penicillin/streptomycin, 0.5 mg/mL hygromycin and 0.25 mg/mL G418. The cells were then cryopreserved in LN2. On the day of the assay, cells were thawed and resuspended in EBSS Assay Buffer (Sigma, E3024) supplemented with 5 mM MgCl2, 10 mM HEPES (4-(2-hydroxyethyl)piperazine-1-ethanesulfonic acid) and 0.05% BSA (bovine serum albumin) (EAB) and cell density was then adjusted to 4×10^5/mL with EAB. IBMX (3-isobutyl-1-methylxanthin, 0.5 mM) was added to inhibit degradation of cGMP. Compounds were diluted from DMSO stock solutions and added to the assay at a final DMSO concentration of 2.5%. Cells were incubated with compounds in the presence and absence of 1 μM of Diethylenetriamine/nitric oxide adduct (DETA-NO; Sigma, 17018) for 1 hr at 37° C. At the end of the incubation period, the reaction was terminated and the cells were lysed with the detection reagents from Cisbio Kits. The level of intracellular cGMP was determined using an HTRF-based assay kit (CisBio, 62GM2PEC), which detects the displacement of a fluorescence labeled cGMP from its specific antibody. The cGMP produced by test compounds was directly compared to the maximum cGMP production (this value was set to equal 100% activation.) of the published sGC-HDA Compound A:
[drawing 101] (Example 1 in WO 2010/065275, published Jun. 10, 2010). The test compounds' activities were then expressed as a percentage of Compound A, the standard in every experiment. This percent activation was calculated either in the presence or absence of DETA-NO which was then plotted. IP and maximum fold induction was derived using ADA analysis software for 4P fit.
The compounds in the Examples of the instant invention had inflection points (IP) less than or equal to 10 μM and many had IPs less than or equal to about 1 μM.

Emax [%]	EC50 [nM]	Structure (SMILES)
89	238	CC1(C)C(=O)Nc2nc(-c3cn4ccnc4c(Oc4cc(F)cc(F)c4)n3)nc(N)c21 [Example 24, 4-amino-2-[8-(3,5-difluorophenoxy)imidazo[1,2-a]pyrazin-6-yl]-5,5-dimethyl-5,7-dihydro-6H-pyrrolo[2,3-d] pyrimidin-6-one]
97	32	CC1(c2ccc(F)cc2)C(=O)Nc2nc(-c3cn4ccnc4c(Oc4cc(F)ccc4F)n3)nc(N)c21 (centres unmarked) [Example 25A, 4-amino-2-[8-(2,5-difluorophenoxy)imidazo[1,2-a]pyrazin-6-yl]-5-(4-fluorophenyl)-5-methyl-5,7-dihydro-6H-pyrrolo[2,3-d] pyrimidin-6-one]
105	718	CC1(C)C(=O)Nc2nc(-c3cn4ccnc4c(Oc4cc(F)ccc4F)n3)nc(N)c21 [Example 26, 4-amino-2-[8-(2,5-difluorophenoxy)imidazo[1,2-a]pyrazin-6-yl]-5,5-dimethyl-5,7-dihydro-6H-pyrrolo[2,3-d] pyrimidin-6-one]
128	47	CC1(c2ccc(Cl)cc2)C(=O)Nc2nc(-c3cn4ccnc4c(Oc4cc(F)ccc4F)n3)nc(N)c21 (centres unmarked) [Example 27A, 4-amino-5-(4-chlorophenyl)-2-[8-(2,5-difluoro-phenoxy)imidazo [1,2-a]pyrazin-6-yl]-5-methyl-5,7-dihydro-6H-pyrrolo[2,3-d] pyrimidin-6-one]
139	1160	CC1(c2ccc(Cl)cc2)C(=O)Nc2nc(-c3cn4ccnc4c(OC4CCC(F)(F)CC4)n3)nc(N)c21 (centres unmarked) [Example 28A, 4-amino-5-(4-chlorophenyl)-2-{8-[(4,4-difluorocyclohexyl)oxy]imidazo[1,2-a]pyrazin-6-yl}-5-methyl-5,7-dihydro-6H-pyrrolo[2,3-d] pyrimidin-6-one]
158	422	CC1(c2ccc(F)cc2)C(=O)Nc2nc(-c3cn4ccnc4c(Oc4cccnc4)n3)nc(N)c21 (centres unmarked) [Example 29A, 4-amino-5-(4-fluorophenyl)-5-methyl-2-[8-(pyridin-3-yloxy)imidazo[1,2-a]pyrazin-6-yl]-5,7-dihydro-6H-pyrrolo[2,3-d] pyrimidin-6-one]
98	145	CC1(c2ccc(F)cc2)C(=O)Nc2nc(-c3cn4ccnc4c(OCC4CC(F)(F)C4)n3)nc(N)c21 (centres unmarked) [Example 31A, 4-amino-2-{8-[(3,3-difluoro-cyclobutyl)methoxy]imidazo [1,2-a]pyrazin-6-yl}-5-(4-fluoro-phenyl)-5-methyl-5,7-dihydro-6H-pyrrolo[2,3-d] pyrimidin-6-one]
112	1040	CC1(c2ccc(F)cn2)C(=O)Nc2nc(-c3cn4ccnc4c(OCC4CC(F)(F)C4)n3)nc(N)c21 (centres unmarked) [Example 33B, 4-amino-2-{8-[(3,3-difluoro-cyclobutyl)methoxy]imidazo [1,2-a]pyrazin-6-yl}-5-(5-fluoro-pyridin-2-yl)-5-methyl-5,7-dihydro-6H-pyrrolo[2,3-d] pyrimidin-6-one]
94	468	CC1(c2ccc(F)cc2)C(=O)Nc2nc(-c3cn4cc(C(F)(F)F)nc4c(Oc4cccc(F)c4)n3)nc(N)c21 (centres unmarked) [Example 35A, 4-Amino-2-(8-(3-fluorophenoxy)-2-(trifluoromethyl)imidazo[1,2-a]pyrazin-6-yl)-5-(4-fluorophenyl)-5-methyl-5H-pyrrolo[2,3-d]pyrimidin-6(7H)-one]
129	1470	CC1(c2ccc(F)cc2)C(=O)Nc2nc(-c3cn4cc(C(F)(F)F)nc4c(Oc4ccccc4)n3)nc(N)c21 (centres unmarked) [Example 36A, 4-amino-5-(4-fluorophenyl)-5-methyl-2-(8-phenoxy-2-(trifluoromethyl)imidazo[1,2-a]pyrazin-6-yl)-5H-pyrrolo[2,3-d] pyrimidin-6(7H)-one]
83	719	CC1(c2ccc(F)cc2)C(=O)Nc2nc(-c3cn4cc(C(F)(F)F)nc4c(Oc4cccc(F)c4F)n3)nc(N)c21 (centres unmarked) [Example 37A, 4-amino-2-(8-(2,3-difluoro-phenoxy)-2-(trifluoromethyl)imidazo[1,2-a]pyrazin-6-yl)-5-(4-fluorophenyl)-5-methyl-5H-pyrrolo[2,3-d] pyrimidin-6(7H)-one]
92	748	CC1(c2ccc(F)cc2)C(=O)Nc2nc(-c3cn4cc(C5CC5)nc4c(Oc4cccc(F)c4)n3)nc(N)c21 (centres unmarked) [Example 38A, 4-amino-2-[2-cyclopropyl-8-(3-fluorophenoxy)imidazo[1,2-a]pyrazin-6-yl]-5-(4-fluorophenyl)-5-methyl-5,7-dihydro-6H-pyrrolo[2,3-d] pyrimidin-6-one]
94	644	CC1(c2ccc(F)cc2)C(=O)Nc2nc(-c3cn4ccnc4c(OCCC4CC4(F)F)n3)nc(N)c21 (centres unmarked) [Example 41A, 4-amino-2-{8-[2-(2,2-difluoro-cyclopropyl)ethoxy]imidazo[1,2-a]pyrazin-6-yl}-5-(4-fluorophenyl)-5-methyl-5,7-dihydro-6H-pyrrolo[2,3-d] pyrimidin-6-one]
119	1350	CC1(c2ccc(F)cc2)C(=O)Nc2nc(-c3cn4ccnc4c(OCCC4CC(F)(F)C4)n3)nc(N)c21 (centres unmarked) [Example 42A, 4-amino-2-{8-[2-(3,3-difluoro-cyclobutyl)ethoxy]imidazo[1,2-a]pyrazin-6-yl}-5-(4-fluorophenyl)-5-methyl-5,7-dihydro-6H-pyrrolo[2,3-d] pyrimidin-6-one]
116	17	CC1(c2ccc(F)cc2)C(=O)Nc2nc(-c3cn4ccnc4c(OCC4CCCCC4)n3)nc(N)c21 (centres unmarked) [Example 43A, 4-amino-2-[8-(cyclohexyl-methoxy)imidazo [1,2-a]pyrazin-6-yl]-5-(4-fluorophenyl)-5-methyl-5,7-dihydro-6H-pyrrolo[2,3-d] pyrimidin-6-one]
100	60	CC1(c2ccc(F)cc2)C(=O)Nc2nc(-c3cn4ccnc4c(OCCC4CC4)n3)nc(N)c21 (centres unmarked) [Example 44A, 4-amino-2-[8-(2-cyclopropyl-ethoxy)imidazo [1,2-a]pyrazin-6-yl]-5-(4-fluorophenyl)-5-methyl-5,7-dihydro-6H-pyrrolo[2,3-d] pyrimidin-6-one]
